Measurements from US9486536B2 (Immunomedics, Inc., priority 2013, dated 2016).

Legend:
[1] = tested on: gastric (NCI-N87), pancreatic (Capan-1), and breast (MDA-MB-468) human cancer cell lines; assay: 4-day MTS assay, potency of the conjugate; format: cell-based; conditions: range over NCI-N87, Capan-1 and MDA-MB-468
Experimental: Retention of antibody binding was confirmed by cell binding assays comparing binding of the conjugate to unconjugated antibody (Chari, 2008, Acc Chem Res 41:98-107). The potency of the conjugate was tested in a 4-day MTS assay using appropriate target cells.

[2] = serum stability, HIC HPLC; format: in vitro ADME; conditions: human serum, 0.2 mg/mL, 37° C.
Experimental: Serum stability of prototypical P2PDox conjugate, hRS7-P2PDox, was determined by incubating in human serum at a concentration of 0.2 mg/mL at 37° C.

[3] = tolerability / toxicity of hRS7-P2PDox in mice
Experimental: (§1) Tumor size was determined by caliper measurements of length (L) and width (W) with tumor volume calculated as (L×W^2)/2. Tumors were measured and mice weighed twice a week. Mice were euthanized if their tumors reached >1 cm^3 in size, lost greater than 15% of their starting body weight, or otherwise became moribund. Statistical analysis for the tumor growth data was based on area under the curve (AUC) and survival time. Profiles of individual tumor growth were obtained through linear curve modeling. An f-test was employed to determine equality of variance between groups prior to statistical analysis of growth curves. A two-tailed t-test was used to assess statistical significance between all the various treatment groups and non-specific controls. For the saline control analysis a one-tailed t-test was used to assess significance. Survival studies were analyzed using Kaplan-Meier plots (log-rank analysis), using the Prism GraphPad Software (v4.03) software package (Advanced Graphics Software, Inc.; Encinitas, Calif.). All doses in preclinical experiments are expressed in antibody amounts. In terms of drug, 100 μg of antibody (5 mg/kg) in a 20-g mouse, for example, carries 1.4 μg-2.8 μg ([…]) of P2PDox equivalent dose when using an ADC with 3-6 drugs/IgG.
(§2) Using this dosing regimen, we examined the therapeutic effect of hRS7-P2PDox in 2 human tumor xenograft models, Capan-1 (pancreatic cancer) and NCI-N87 (gastric cancer). Therapy began 7 days after tumor transplantation in nude mice.
Conjugates were prepared and evaluated with mean drug/MAb substitution ratios (MSRs) of ˜6:1 and ˜3:1. Groups of normal mice (n=5) were administered, i.v., single doses of unmodified hRS7 or hRS7-P2PDox with drug substitution of 6.8 or 3.7 (same protein dose), and serum samples were collected at 30 min, 4 h, 24 h, 72 h, and 168 h post-injection. These were analyzed by ELISA for antibody concentration.
(§3) Anti-TROP-2 antibody conjugate, hRS7-P2PDox, was evaluated in nude mice bearing NCI-N87 human gastric cancer xenografts by administering a single bolus protein dose of 9 mg/kg, 6.75 mg/kg, 4.5 mg/kg, 2.25 mg/kg, or 1 mg/kg. The therapy was started when the mean tumor volume (mTV) was 0.256 cm^3.

[4] = tested on: NCI-N87 human gastric carcinoma xenografts; assay: therapy of NCI-N87 xenografts in nude mice; format: in vivo; conditions: for mean tumor volume (mTV) on day 21: starting mTV 0.256 cm^3
Experimental: FIG. 3A. Therapy in nude mice bearing s.c. human tumor xenografts using 2.25 mg/kg protein dose (0.064 mg/kg of drug dose) of MAb-P2PDox conjugates twice weekly×2 weeks in nude mice (n=7) with NCI-N87 human gastric carcinoma xenografts.
as §1, §2, §3
Further in vivo efficacy studies were performed in nude mice implanted with NCI-N87 human gastric cancer xenografts (FIG. 13A-F).
The effect of varying dosage schedule on anti-tumor efficacy was examined (FIG. 14, FIG. 19A-G). The experiment began 9 days after tumor implantation when mean tumor volume for all groups was 0.383 cm^3, and ended on day 93 (84 days after initiation of therapy).

[5] = PK in normal mice, serum antibody by ELISA; format: in vivo; conditions: drug substitution 6.8 or 3.7 vs unmodified hRS7
Experimental: These were analyzed by ELISA for antibody concentration. […] The PK parameters (Cmax, AUC, etc.) were similar.

[6] = tested on: Trop-2-positive human pancreatic adenocarcinoma cell line (BxPC-3); assay: ADCC with PBMCs, effector to target ratio 100:1; format: cell-based; conditions: 33.3 nM
Experimental: The ADCC activity of various hRS7-ADC conjugates was determined in comparison to hRS7 IgG (FIG. 17). PBMCs were purified from blood purchased from the Blood Center of New Jersey. A Trop-2-positive human pancreatic adenocarcinoma cell line (BxPC-3) was used as the target cell line with an effector to target ratio of 100:1. ADCC mediated by hRS7 IgG was compared to hRS7-Pro-2-PDox, hRS7-CL2A-SN-38, and the reduced and capped hRS7-NEM. All were used at 33.3 nM.

[7] = tested on: HIV-1IIIB/MuLV infected splenocytes; assay: HIV-1/MuLV infected cell challenge in mice; format: in vivo; conditions: doses of 100-200 μg
Experimental: P4/D10-P2PDox is tested in vitro for its efficacy in eliminating HIV-1-infected cells among non-infected cells and in a mouse model by removing HIV-1/MuLV (murine leukemia virus) infected syngeneic cells from the intraperitoneal cavity.
A human T-cell line, CEM-1B, with a genetically integrated MuLV genome is infected with HIV-1IIIB, which leads to the production of pseudoviruses with the HIV-1 genome and the MuLV envelope (Adang et al., PNAS USA 1999, 96:12749-753; Hinkula et al., Cells Tissues Organs 2004, 177:169-184). These virus supernatants are used to infect splenocytes from C57B1/6×DBA F1 K^b/d mice transgenic for HLA-A201. Isogenic mice are challenged with HIV-1IIIB/MuLV infected splenocytes i.p. and are immediately given conjugated antibodies or free antibodies i.p. Ten days after challenge, mice are sacrificed and peritoneal cells collected. Peritoneal cells are pelleted and added to 1×10^6 HIV susceptible Jurkat T-cells or human PBMC grown in 24-well plates. From these secondary cultures, supernatant is removed and fresh medium added every 3-4 days. The amount of infectious HIV recovered in the supernatant is measured for 3 weeks by p24 ELISA.
To test the efficacy of P4/D10-P2PDox in vivo, mice are given isogeneic HIV/MuLV-infected cells together with conjugates intraperitoneally.

Substance: hRS7-P2PDox
- IC50 [1]: 350 to 1090 pM
- release of free drug from the conjugate [2]: no release of free drug
- toxicity of the three dosage schedules ([3]; 45 μg q4dx4, 90 μg weekly×2, single 180 μg (not shown)): similarly low levels of toxicity
- tolerability of 4 doses of 45 μg given in 2 weeks ([3]; 4 doses of 45 μg in 2 weeks): tolerated by all animals
- MTD ([3]; single bolus protein dose, nude mice bearing NCI-N87): 9 mg/kg
- lethal single i.v. dose ([3]; single i.v. dose, antibody amount [~10 μg of P2PDox]): ≥ 300 µg
- mice alive at day 94 ([4]; 45 μg q4dx4): 8 of 9
- mice alive at day 94 ([4]; 90 μg weekly×2): 9 of 9
- effect of 2nd course of therapy ([4]; 2nd course administered after day 70): safely tolerated and led to further regressions of residual tumor
- effect on tumors, one treatment cycle ([4]; 4×45 μg): rapidly regressed all tumors
- effect of second treatment cycle ([4]; second cycle about 2 months after the end of the first cycle): complete regression of all but one
- minimum effective dose ([4]; single bolus protein dose): 2.25 mg/kg
- mean tumor volume (mTV) on day 21 ([4]; single bolus protein dose 2.25 mg/kg): 0.567±0.179 cm^3
- mean tumor volume (mTV) on day 21 ([4]; single bolus protein dose 4.5 mg/kg): 0.264±0.087 cm^3
- mean tumor volume (mTV) on day 21 ([4]; single bolus protein dose 9 mg/kg): 0.211±0.042 cm^3
- minimum single dose for significant survival benefit compared to saline control ([4]; single dose): 45 µg
- single dose giving maximum effect on tumor growth ([4]; single dose): ≥ 90 µg
- mice alive at day 94 ([4]; single dose of 180 μg): 78 of 9
- PK parameters (Cmax, AUC, etc.) [5]: similar
- serum concentrations at various times ([5]; single i.v. dose, 30 min to 168 h): no significant differences in serum concentrations
- specific lysis (ADCC) [6]: not significantly different
- protection by control conjugates [7]: None of the P2PDox-conjugated control antibodies (hLL1 or hRS7) provide any protection
